Where two headings read alike, the source gives them in different places. Where only a bound is given, the exact number is not on record here.

Data set [1] has as its system ET replicon with NS5B P495L. Put plainly: microbe, parasite or virus in culture. It counts as cell-based, HCV.
The test system of data set [2] is erythroid progenitor cells (CFU-E and BFU-E). Put plainly: Human bone marrow stem cell toxicity, 14-day colony formation, erythroid. Particulars: 1 μg/mL (4 μM), 14 days. It counts as cell-based.
The test system of data set [3] is myeloid progenitor cells (CFU-GM). Kind of data set: Human bone marrow stem cell toxicity, 14-day colony formation, myeloid. It counts as cell-based. To be noted: 1 μg/mL (4 μM), 14 days.
Data set [4] has as its system ET replicon with NS5B M414T. Kind of data set: microbe, parasite or virus in culture. It is filed as cell-based, HCV.
For data set [5], the system named is Human nucleoside diphosphate kinase (NDPK). Put plainly: NDPK-mediated phosphorylation, coupled assay. It counts as biochemical.
A short description of data set [6]: 8-day MTS cytotoxicity assay, BxPC3. It is filed as cell-based, human. Particulars: human, BxPC3 cells.
Data set [7] in a line: 8-day MTS cytotoxicity assay, Huh7. It counts as cell-based, human. To be noted: human, Huh7 cells. On the technique in general: Tetrazolium assays rely on reduction of a dye to a coloured formazan, in cell work by metabolically active cells.
Data set [8] can be described thus: 8-day MTS cytotoxicity assay, CEM. It is filed as cell-based, human. Particulars: human, CEM cells.
Data set [9] is described as follows: 8-day MTS cytotoxicity assay, HepG2. It counts as cell-based, human. Particulars: human, HepG2 cells.
The test system of data set [10] is ET replicon with NS5B C316Y. Kind of data set: microbe, parasite or virus in culture. It counts as cell-based, HCV.
Another data set addresses T1, recombinant human ADAL1 (Homo sapiens, UniProt Q6DHV7).
T1 sequence (Q6DHV7 1-355): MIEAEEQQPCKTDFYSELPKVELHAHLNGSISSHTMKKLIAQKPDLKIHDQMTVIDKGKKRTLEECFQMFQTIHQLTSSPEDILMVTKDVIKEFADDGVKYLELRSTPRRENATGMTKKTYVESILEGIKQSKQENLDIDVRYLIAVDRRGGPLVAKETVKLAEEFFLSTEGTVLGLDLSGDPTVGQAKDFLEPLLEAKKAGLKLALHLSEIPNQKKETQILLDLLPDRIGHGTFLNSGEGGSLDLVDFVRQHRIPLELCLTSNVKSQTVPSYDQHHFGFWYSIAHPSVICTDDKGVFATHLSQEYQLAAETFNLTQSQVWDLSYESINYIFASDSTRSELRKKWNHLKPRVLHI
Kind of data set: ADAL1-mediated demethylation assay. To be noted: ADAL1, pH 6.7, 37°C. It is filed as biochemical.

The subject of data set [11] is genotype 1b replicon (Con1 strain). Put plainly: HCV replicon assay, genotype 1b Con1. It is filed as cell-based. Particulars: GT1b_Con1 replicon, four days (96 h).
Data set [12] relates to genotype 2a J6/JFH-1 subgenomic replicon. Kind of data set: HCV replicon assay, genotype 2a J6/JFH-1. To be noted: GT2a_JFH-1 replicon, four days. It counts as cell-based. (A replicon is a self-replicating genome or part of one, used to study replication in cells.)
Data set [13] deals with genotype 1a H77 subgenomic replicon. Put plainly: HCV replicon assay, genotype 1a H77. It counts as cell-based. Particulars: GT1a_H77 replicon, four days.
The test system of data set [14] is primary human hepatocytes. Kind of data set: Metabolism of [3H]-PSI-353661 in primary human hepatocytes. It is filed as in vitro ADME. Particulars: continuous exposure to 5 μM [3H]-PSI-353661.
In data set [15] the test system is Clone A wild type replicon. Kind of data set: Cross resistance: Clone A wild type replicon, RT-PCR. It counts as cell-based, HCV. Particulars: read-out: EC90 WT replicon.
The subject of data set [16] is ET replicon with NS5B S96T/N142T. Kind of data set: microbe, parasite or virus in culture. To be noted: for EC90 fold change: S96T/N142T mutant EC90 normalised to wild-type; for EC90: read-out: EC90 Mutant replicon. It is filed as cell-based, HCV.
The subject of data set [17] is Clone A replicon with NS5B S282T. Kind of data set: microbe, parasite or virus in culture. It is filed as cell-based, HCV. To be noted: for EC90 fold change: S282T mutant EC90 normalised to wild-type; for EC90: read-out: EC90 Mutant replicon.
Data set [18] concerns genotype 1b ET replicon, wild type. It is filed as cell-based, HCV. To be noted: read-out: EC90 WT replicon; wild-type ET replicon, luciferase-based assay.
For data set [19], the target named is T2, Human guanylate kinase (hGUK1) (Homo sapiens, UniProt Q16774).
T2 sequence (Q16774 1-197): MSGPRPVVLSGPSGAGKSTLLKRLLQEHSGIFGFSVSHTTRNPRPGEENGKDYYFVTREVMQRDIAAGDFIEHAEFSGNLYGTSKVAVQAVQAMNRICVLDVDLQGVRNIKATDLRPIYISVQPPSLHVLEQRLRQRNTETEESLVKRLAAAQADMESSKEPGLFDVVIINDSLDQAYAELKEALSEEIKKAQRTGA
Kind of data set: hGUK1-mediated phosphorylation, coupled spectrophotometric assay. It is filed as biochemical.

Data set [20] has as its system ET replicon with NS5B M423T. It is filed as cell-based, HCV.
Setting [21] is: Hepatitis C virus, read-out: EC90 Mutant replicon.

Turning to `COc1ccc2c(c1)C1CC1(N)Cn1c-2c(C2CCCCC2)c2ccc(C(=O)NS(=O)(=O)N(C)C)cc21` (centres unmarked) [2-phenol indole, 5a-amino-12-cyclohexyl-N-(N,N-dimethylsulfamoyl)-3-methoxy-4b,5,5a,6-tetrahydrobenzo [3,4] cyclopropa [5,6] azepino [1,2-a] indole-9-carboxamide, reference compound], the 90% effect concentration (EC90) in data set [1] (setting [21]) was found to be 60.8 ± 19.9 µM. Besides, the EC90 fold change in data set [1] (P495L mutant EC90 normalised to wild-type) is listed as 51.9.
Turning to `O=c1[nH]cc(F)c(=O)[nH]1` [5-fluorouracil, 5-Fluorouracil, reference compound], the “inhibition of BFU-E colony formation” value in data set [2] is “completely inhibited”. Further, in data set [3], the “inhibition of CFU-GM colony formation” value was “completely inhibited”.
Take `CC(C)CCn1c(=O)c(C2=NS(=O)(=O)c3cc(N(C)S(C)(=O)=O)ccc3N2)c(O)c2cccn21` [Benzothiadiazine, N-{3-[4-Hydroxy-1-(3-methyl-butyl)-2-oxo-1,2-dihydro-pyrrolo[1,2-b]pyridazin-3-yl]-1,1-dioxo-1,4-dihydro-1λ^6-benzo[1,2,4]thiadiazin-7-yl}-N-methyl-methanesulfonamide, reference compound]: the EC90 in data set [4] (setting [21]) came out at 28.4 ± 13.7 µM. Moreover, in data set [4] (M414T mutant EC90 normalised to wild-type), the EC90 fold change is reported as 23.1.
Take `Nc1nc2c(ncn2[C@@H]2O[C@H](COP(=O)(O)OP(=O)(O)O)[C@@H](O)[C@H]2O)c(=O)[nH]1` [GDP, guanosine-5′-diphosphate, reference compound]: the “kcat (apparent)” value in data set [5] (25 °C, PK contributed in the phosphorylation) stood at 38.8 ± 5.0 s⁻¹. In data set [5] (read-out: Km (apparent), 25 °C, PK contributed in the phosphorylation), the Michaelis-Menten constant (Km) was 56.2 ± 4.9 µM.
Turning to `Nc1ccn([C@@H]2O[C@H](CO)[C@@H](O)C2(F)F)c(=O)n1` [Gemcitabine, 2′-deoxy-2′-difluorocytidine], the CC50 at 8 days in data set [6], in data set [7], in data set [8] and in [9] was < 1 µM each time.
For the compound `CNC(=O)c1c(-c2ccc(F)cc2)oc2cc(N(CCO)S(C)(=O)=O)c(C3CC3)cc12` [HCV-796, 5-cyclopropyl-2-(4-fluoro-phenyl)-6-[(2-hydroxy-ethyl)-methanesulfonyl-amino]-benzofuran-3-carboxylic acid methylamide, reference compound], the EC90 fold change in data set [10] (C316Y mutant EC90 normalised to wild-type) came to 73.9. For the same compound, the EC90 in [10] (setting [21]) is 1.92 ± 0.77 µM.
Consider `CNc1ncnc2c1ncn2[C@@H]1O[C@H](COP(=O)(O)O)[C@@H](O)[C@H]1O` [N^6-meAMP, N^6-methyl AMP, reference compound], for which, at recombinant human ADAL1, the Km is 12.5 ± 1.6 µM and the kcat amounted to 1.58 ± 0.12 s⁻¹.
For `COc1nc(N)nc2c1ncn2[C@@H]1O[C@H](COP(=O)(O)O)[C@@H](O)[C@H]1O` [O^6-meGMP, O^6-methyl GMP, reference compound], in that order: 5.2 ± 0.9 µM and 2.33 ± 0.07 s⁻¹.
In the case of `C[C@@]1(F)[C@H](O)[C@@H](CO)O[C@H]1n1cnc2c(=O)[nH]c(N)nc21` [PSI-6567, 2′-F-2′-C-methylguanosine], the EC50 in [11] came to 22 ± 7.7 µM; in [12], 38.3 ± 18.6 µM; in data set [13], 19 ± 8.6 µM. Also, the EC90 was 69.2 ± 19.3 µM in data set [11], 60 ± 14.8 µM in data set [12] and 53.4 ± 12.8 µM in [13]. Moreover, the “time to maximum intracellular concentration” value (shortened to “time”) in data set [14] was 0.5 to 1 h.
On to `CC(C)OC(=O)[C@H](C)NP(=O)(OC[C@H]1O[C@@H](n2ccc(=O)[nH]c2=O)[C@](C)(F)[C@@H]1O)Oc1ccccc1` (some centres unmarked) [PSI-7851], for which the concentration for an effect of 90% (EC90) came out at 0.44 ± 0.21 µM in data set [15] (Clone A wild type replicon, RT-PCR assay); 0.39 ± 0.19 µM in [16] (S96T/N142T, luciferase-based assay); 7.36 ± 1.02 µM in data set [17] (S282T, RT-PCR assay); 0.43 ± 0.23 µM in data set [18]. Moreover, the EC90 fold change was found to be 0.9 in data set [16] and 16.7 in [17].
Turning to `COc1nc(N)nc2c1ncn2[C@@H]1O[C@H](CO)[C@@H](O)[C@@]1(C)F` [PSI-352878, (2R,3R,4R,5R)-5-(2-amino-6-methoxy-purin-9-yl)-4-fluoro-2-hydroxymethyl-4-methyl-tetrahydro-furan-3-ol], the “time” value in [14] was in the range of 0.5 to 1 h.
`COc1nc(N)nc2c1ncn2[C@@H]1O[C@H](COP(=O)(O)N[C@@H](C)C(=O)O)[C@@H](O)[C@@]1(C)F` [PSI-353131, (S)-2-{[(2R,3R,4R,5R)-5-(2-amino-6-methoxy-purin-9-yl)-4-fluoro-3-hydroxy-4-methyl-tetrahydro-furan-2-ylmethoxy]-hydroxy-phosphorylamino}-propionic acid]: on recombinant human ADAL1, the Km entry is reported as “No activity”, the kcat entry is listed as “No activity” and the “kcat / Km” value is “No activity”. Further, in data set [14], the “time” value is 0.25 h.
Consider `C[C@@]1(F)[C@H](O)[C@@H](COP(=O)(O)O)O[C@H]1n1cnc2c(=O)[nH]c(N)nc21` [PSI-353222, 2′-deoxy-2-α-fluoro-2-β-C-methylguanosine-5′-monophosphate], for which the “time” value in data set [14] fell in the range of 1 to 2 h. Further, in data set [19] (hGUK1), the “Km compared to GMP (fold weaker)” value is listed as 3.4 fold and the “kcat compared to GMP (fold lower)” value was “approximately 240 fold”. Also, in data set [19] (hGUK1, 37°C), the Km is 64.9 ± 1.6 µM and the kcat is 0.31 ± 0.03 s⁻¹.
For the compound `COc1nc(N)nc2c1ncn2[C@@H]1O[C@H](COP(=O)(O)O)[C@@H](O)[C@@]1(C)F` [PSI-353224, 2-amino-6-methoxypurine 2′-deoxy-2′-α-fluoro-2-β-C-methylribose-5′-monophosphate], on recombinant human ADAL1, the Michaelis-Menten constant (Km) turned out to be 9 ± 2.1 µM and the kcat is 5.84 ± 0.40 s⁻¹. Further, the “time” value in [14] fell in the range of 0.5 to 1 h. The activity as substrate entry in data set [19] (hGUK1, 500 μM, the highest concentration tested) is “No activity”. In addition, in data set [19] (hGUK1, 37°C), the Km result is on record as “No activity”, the kcat entry is given as “No activity” and the “kcat / Km” value was “No activity”.
As to `[N-]=[N+]=N[C@]1(CO)O[C@@H](n2ccc(N)nc2=O)[C@H](O)[C@@H]1O` [R1479, 4′-azidocytidine], the EC90 in data set [15] (Hepatitis C virus) was 22.4 ± 4.58 µM; in data set [16] (Hepatitis C virus), 74.1 ± 12.1 µM; in data set [17] (Hepatitis C virus) it was 12.5 ± 3.78 µM. Further, the EC90 fold change in data set [16] was found to be 4.7; in data set [17] it was 0.6.
On to `CC(C)N(c1cc(-c2ccccc2)sc1C(=O)O)C(=O)[C@H]1CC[C@H](C)CC1` [Thiophene, 3-((1r,4r)-N-isopropyl-4-methylcyclohexanecarboxamido)-5-phenylthiophene-2-carboxylic acid, reference compound], for which the EC90 fold change in [20] (M423T mutant EC90 normalised to wild-type) is listed as 19.1. Moreover, the EC90 in data set [20] (read-out: EC90 Mutant replicon, M423T, luciferase-based assay) was determined as 69.5 ± 9.24 µM; in data set [18], 3.65 ± 0.21 µM.

The EC90 is the point of the concentration-response curve where the effect stands at 90%. What is called Km is the substrate concentration at which the rate is half of its maximum. A word on the CC50: it is the concentration that lowers cell viability or growth by half. A lower CC50 goes with greater toxicity to the cells. What is called kcat is the number of substrate molecules converted per active site and unit of time at saturation. What is called EC50 is the concentration at which the effect is half-maximal. Lower therefore signals a more potent agent.

(Values after PMC3135787 (Antiviral research, 2011).)
